Measured values from paper PMC8989888, “Development of optimized drug-like small molecule inhibitors of the SARS-CoV-2 3CL protease for treatment of COVID-19” (Nature Communications, 2022).
Several values for one entry are separate records, joined by “and”; a condition that tells them apart may be missing. Equal values may be shown once.

What was measured:
SARS-CoV-2 3CL protease [1] = target: T1, SARS-CoV-2 3CL protease (Severe acute respiratory syndrome coronavirus 2, UniProt P0DTD1); assay: biochemical; conditions: for % SARS-CoV-2 3CL activity / IC50: 20 nM protease; for % SARS-CoV-2 3CL activity / Normalized SARS-CoV-2 3CL protease activity: replicates; for IC50: read-out: SARS-CoV-2 3CLpro IC50; for Normalized SARS-CoV-2 3CL protease activity: 0.2 µM protease with 50 µM tested compound
SARS-CoV-2 3CL protease [2] = target: T1, SARS-CoV-2 3CL protease; assay: cell-based
SARS-CoV-2 3CL protease [3] = target: T1, SARS-CoV-2 3CL protease; assay: biochemical
SARS-CoV-2 = assay: microbe, parasite or virus in culture; assay type: cell-based; conditions: Severe acute respiratory syndrome coronavirus 2, Vero C1008, read-out: SARS-CoV-2 Vero E6 EC50
SARS-CoV-2 3CL protease [4] = target: T1, SARS-CoV-2 3CL protease; assay type: binding

## O=C(Oc1cncc(Cl)c1)c1ccco1 [T71]
SARS-CoV-2 3CL protease [1]; log10[nM] 0.19382
  % SARS-CoV-2 3CL activity: 86.3659% and 89.8434%
SARS-CoV-2 3CL protease [1]; log10[nM] 0.49485
  % SARS-CoV-2 3CL activity: 80.2845% and 76.3012%
SARS-CoV-2 3CL protease [1]; log10[nM] 0.79588
  % SARS-CoV-2 3CL activity: 65.6694% and 65.2855%
SARS-CoV-2 3CL protease [1]; log10[nM] 1.09691
  % SARS-CoV-2 3CL activity: 47.7195% and 48.4083%
SARS-CoV-2 3CL protease [1]; log10[nM] 1.39794
  % SARS-CoV-2 3CL activity: 16.1844% and 18.9995%
SARS-CoV-2 3CL protease [1]; log10[nM] 1.69897
  % SARS-CoV-2 3CL activity: 0.4414% and 4.144%
SARS-CoV-2 3CL protease [1]; log10[nM] 2
  % SARS-CoV-2 3CL activity: -3.629% and 1.061%
SARS-CoV-2 3CL protease [1]; log10[nM] 2.30103
  % SARS-CoV-2 3CL activity: -2.6974% and 0.4042%
SARS-CoV-2 3CL protease [1]; log10[nM] 2.60206
  % SARS-CoV-2 3CL activity: -1.9127% and -0.758%
SARS-CoV-2 3CL protease [1]; log10[nM] 2.90309
  % SARS-CoV-2 3CL activity: 0%
SARS-CoV-2 3CL protease [1]; log10[nM] -0.10721
  % SARS-CoV-2 3CL activity: 95.0956% and 96.5639%
SARS-CoV-2 3CL protease [1]; log10[nM] -0.40824
  % SARS-CoV-2 3CL activity: 100%
SARS-CoV-2 3CL protease [1]
  IC50: 0.011 µM
  Normalized SARS-CoV-2 3CL protease activity: 0.04328 and 0.01902 and 0.03148
SARS-CoV-2 3CL protease [2]
  Absorbance (crystal violet), SARS-CoV-2 3CLpro: 0.16 and 0.1636

## CCn1nc(C)c(C(=O)Oc2cncc(Cl)c2)c1Cl [Z65]
SARS-CoV-2 3CL protease [1]
  Normalized SARS-CoV-2 3CL protease activity: 0.223 and 0.2216 and 0.2302
SARS-CoV-2 3CL protease [2]
  Absorbance (crystal violet), SARS-CoV-2 3CLpro: 0.1475 and 0.1384

## N#CCc1cccc(C(=O)Oc2cncc(Cl)c2)c1 [Z50]
SARS-CoV-2 3CL protease [1]
  Normalized SARS-CoV-2 3CL protease activity: 0.05574 and 0.08721 and 0.4348
SARS-CoV-2 3CL protease [2]
  Absorbance (crystal violet), SARS-CoV-2 3CLpro: 0.1475 and 0.1394

## CC(=O)Nc1ccc(C(=O)Oc2cncc(Cl)c2)cc1 [Z32]
SARS-CoV-2 3CL protease [1]
  Normalized SARS-CoV-2 3CL protease activity: 0.07213 and 0.1423 and 0.1862
SARS-CoV-2 3CL protease [2]
  Absorbance (crystal violet), SARS-CoV-2 3CLpro: 0.1483 and 0.1499

## O=C(Oc1cncc(Br)c1)c1cc2c([nH]c1=O)CCCC2 [Z61]
SARS-CoV-2 3CL protease [1]
  Normalized SARS-CoV-2 3CL protease activity: 0.4525 and 0.1738 and 0.3423
SARS-CoV-2 3CL protease [2]
  Absorbance (crystal violet), SARS-CoV-2 3CLpro: 0.1155 and 0.1264

## CC(=O)N1CCc2cc(C(=O)Oc3cncc(Cl)c3)ccc21 [Z21]
SARS-CoV-2 3CL protease [1]
  Normalized SARS-CoV-2 3CL protease activity: 0.2321 and 0.2984
SARS-CoV-2 3CL protease [2]
  Absorbance (crystal violet), SARS-CoV-2 3CLpro: 0.1721 and 0.1614

## Cc1ncc(C(=O)Oc2cncc(Br)c2)s1 [Z43]
SARS-CoV-2 3CL protease [1]; log10[nM] 0.19382
  % SARS-CoV-2 3CL activity: 81.5961% and 71.2676%
SARS-CoV-2 3CL protease [1]; log10[nM] 0.49485
  % SARS-CoV-2 3CL activity: 59.9348% and 65.0704%
SARS-CoV-2 3CL protease [1]; log10[nM] 0.79588
  % SARS-CoV-2 3CL activity: 59.9348% and 45.6338%
SARS-CoV-2 3CL protease [1]; log10[nM] 1.09691
  % SARS-CoV-2 3CL activity: 45.6026% and 45.2113%
SARS-CoV-2 3CL protease [1]; log10[nM] 1.39794
  % SARS-CoV-2 3CL activity: 33.0619% and 25.9155%
SARS-CoV-2 3CL protease [1]; log10[nM] 1.69897
  % SARS-CoV-2 3CL activity: 9.772% and 20%
SARS-CoV-2 3CL protease [1]; log10[nM] 2
  % SARS-CoV-2 3CL activity: -2.443% and 0.9859%
SARS-CoV-2 3CL protease [1]; log10[nM] 2.30103
  % SARS-CoV-2 3CL activity: -12.7036% and 7.042%
SARS-CoV-2 3CL protease [1]; log10[nM] 2.60206
  % SARS-CoV-2 3CL activity: -11.2378% and 5.775%
SARS-CoV-2 3CL protease [1]; log10[nM] 2.90309
  % SARS-CoV-2 3CL activity: 0%
SARS-CoV-2 3CL protease [1]; log10[nM] -0.10721
  % SARS-CoV-2 3CL activity: 77.6873% and 77.6056%
SARS-CoV-2 3CL protease [1]; log10[nM] -0.40824
  % SARS-CoV-2 3CL activity: 100%
SARS-CoV-2 3CL protease [1]
  IC50: 0.014 µM
  Normalized SARS-CoV-2 3CL protease activity: 0.007869 and 0.001311 and 0.005246
SARS-CoV-2 3CL protease [2]
  Absorbance (crystal violet), SARS-CoV-2 3CLpro: 0.1361 and 0.1268

## O=C(N[C@@H](CC1CCCCC1)C(=O)N[C@@H](C[C@@H]1CCNC1=O)C(O)S(=O)(=O)O)OCc1cccc(Cl)c1 (some centres unmarked) [EB48]
SARS-CoV-2 3CL protease [3]
  observed inactivation rate vs compound concentration (Figure S19, replicate values): 0.0858 and 0.04 and 0.095 and 0.0226 and 0.0022 and 0.0296 and 0.1194 and 0.0166 and 0.0446 and 0.0488 and 0.0144 and 0.0572 and 0.0269 and -0.02233 and 0.0225 and 0.0208 and 0.0151 and 0.0309
SARS-CoV-2 3CL protease [3]; read-out: SARS-CoV-2 3CLpro kinact/KI
  kinact/KI: 35000 M⁻¹ s⁻¹
SARS-CoV-2 3CL protease [1]
  IC50: 0.2 µM
SARS-CoV-2 3CL protease [1]; Concentration of inhibitor (nM) 0.19382
  normalized activity, dose-response curve (Figure S16): 110.351 and 97.4198
SARS-CoV-2 3CL protease [1]; Concentration of inhibitor (nM) 0.49485
  normalized activity, dose-response curve (Figure S16): 103.827 and 92.511
SARS-CoV-2 3CL protease [1]; Concentration of inhibitor (nM) 0.79588
  normalized activity, dose-response curve (Figure S16): 102.384 and 88.7351
SARS-CoV-2 3CL protease [1]; Concentration of inhibitor (nM) 1.09691
  normalized activity, dose-response curve (Figure S16): 98.7453 and 87.9169
SARS-CoV-2 3CL protease [1]; Concentration of inhibitor (nM) 1.39794
  normalized activity, dose-response curve (Figure S16): 87.2647 and 81.1831
SARS-CoV-2 3CL protease [1]; Concentration of inhibitor (nM) 1.69897
  normalized activity, dose-response curve (Figure S16): 80.9285 and 77.1554
SARS-CoV-2 3CL protease [1]; Concentration of inhibitor (nM) 2
  normalized activity, dose-response curve (Figure S16): 69.8871 and 61.2964
SARS-CoV-2 3CL protease [1]; Concentration of inhibitor (nM) 2.30103
  normalized activity, dose-response curve (Figure S16): 58.4065 and 46.4443
SARS-CoV-2 3CL protease [1]; Concentration of inhibitor (nM) 2.60206
  normalized activity, dose-response curve (Figure S16): 43.601 and 36.7527
SARS-CoV-2 3CL protease [1]; Concentration of inhibitor (nM) -0.10721
  normalized activity, dose-response curve (Figure S16): 108.281 and 111.58
SARS-CoV-2 3CL protease [1]; Concentration of inhibitor (nM) -0.40824
  normalized activity, dose-response curve (Figure S16): 100
SARS-CoV-2
  EC50: 16 µM
SARS-CoV-2 3CL protease [4]
  binding to 3CL protease by mass spectrometry (in words): blocked the covalent binding of 10 equivalents of compound 4
